Experimental data: ChEMBL document CHEMBL1201862, “PubChem BioAssay data set” (2004)
Values belong to the compound of their own block, whether it stands above or below them. Active and inactive are the calls of the source.

Assays:
[1] = reduction of Shn3 3'UTR-driven luciferase in osteoblasts – cell-based, Clone20 osteoblasts, firefly luciferase, cherry-picked, dose response (AID 624132); format: functional;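 also: firefly luciferase luminescence from reporter carrying the Shn3 3'UTR in osteoblasts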
[2] = non-specific 3'UTR reporter inhibition in Clone20-Shn3RL – cell-based, Renilla luciferase, cherry-picked, counter-screen for Shn3 inhibitor project, dose response (AID 624133); format: functional
[3] = loss of viability in HepG2 cells – cell-based, CellTiter-Glo, cherry-picked, cytotoxicity control for Shn3 inhibitor project, dose response (AID 624134); format: functional
[4] = molecular target: T1, Ubiquitin-conjugating enzyme E2 N (Homo sapiens, UniProt P61088); format: functional;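 also: Dose-response confirmation in a TR-FRET assay detecting UBC13-driven polyubiquitin chain formation, inhibition measured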
T1 sequence (P61088 whole entry): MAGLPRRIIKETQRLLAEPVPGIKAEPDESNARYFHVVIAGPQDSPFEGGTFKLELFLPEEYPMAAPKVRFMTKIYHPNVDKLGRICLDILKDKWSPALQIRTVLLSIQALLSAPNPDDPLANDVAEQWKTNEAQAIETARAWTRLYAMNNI

[5] = viability of PTEN-deleted HCT116 cells – cell-based, HCT116 PTEN knockout, dose response (AID 1047); format: functional;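 also: HCT116 colon tumor cells with PTEN knocked out; cells exposed to compound for 60 hours before readout; potency for loss of cell viability measured by luminescence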
[6] = viability of HCT116 lacking mutant beta-catenin – cell-based, human colon tumor, dose response (AID 1045); format: functional;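 also: HCT116 colon tumor cells with beta catenin knocked out; cells exposed to compound for 60 hours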
Cytochrome P450 1A2 = molecular target: T2, Cytochrome P450 1A2 (Homo sapiens, UniProt P05177);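 also: PubChem cytochrome P450 panel assay, CYP1A2 panel member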
T2 sequence (P05177 whole entry): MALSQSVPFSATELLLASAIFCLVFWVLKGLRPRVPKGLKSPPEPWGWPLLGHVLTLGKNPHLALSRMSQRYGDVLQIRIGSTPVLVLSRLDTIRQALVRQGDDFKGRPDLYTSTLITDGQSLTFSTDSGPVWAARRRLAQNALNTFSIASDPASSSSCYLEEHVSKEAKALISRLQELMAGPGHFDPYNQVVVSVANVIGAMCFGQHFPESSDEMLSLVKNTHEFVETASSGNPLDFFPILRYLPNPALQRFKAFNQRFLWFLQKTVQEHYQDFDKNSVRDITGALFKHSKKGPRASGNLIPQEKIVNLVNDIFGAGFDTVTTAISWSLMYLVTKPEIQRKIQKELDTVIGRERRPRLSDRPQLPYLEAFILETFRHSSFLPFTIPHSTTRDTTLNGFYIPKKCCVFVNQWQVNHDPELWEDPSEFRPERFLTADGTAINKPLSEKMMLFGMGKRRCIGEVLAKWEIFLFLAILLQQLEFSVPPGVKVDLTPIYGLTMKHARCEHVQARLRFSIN

Cytochrome P450 2C9 = Cytochrome P450 2C9 (Homo sapiens, UniProt P11712)
Cytochrome P450 2C19 = Cytochrome P450 2C19 (Homo sapiens, UniProt P33261); assay: Cytochrome panel assay with activity outcomes. Panel member name: p450-cyp2c19 Compounds with AC50 equal or less than 10 uM are considered active; format: functional; conditions: read-out: AC50
Cytochrome P450 3A4 = Cytochrome P450 3A4 (Homo sapiens, UniProt P08684);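 also: CYP3A4 tested as one member of a cytochrome P450 panel screen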
Protein skinhead-1 = molecular target: T3, Protein skinhead-1 (Caenorhabditis elegans, UniProt P34707); format: functional
T3 sequence (P34707 whole entry): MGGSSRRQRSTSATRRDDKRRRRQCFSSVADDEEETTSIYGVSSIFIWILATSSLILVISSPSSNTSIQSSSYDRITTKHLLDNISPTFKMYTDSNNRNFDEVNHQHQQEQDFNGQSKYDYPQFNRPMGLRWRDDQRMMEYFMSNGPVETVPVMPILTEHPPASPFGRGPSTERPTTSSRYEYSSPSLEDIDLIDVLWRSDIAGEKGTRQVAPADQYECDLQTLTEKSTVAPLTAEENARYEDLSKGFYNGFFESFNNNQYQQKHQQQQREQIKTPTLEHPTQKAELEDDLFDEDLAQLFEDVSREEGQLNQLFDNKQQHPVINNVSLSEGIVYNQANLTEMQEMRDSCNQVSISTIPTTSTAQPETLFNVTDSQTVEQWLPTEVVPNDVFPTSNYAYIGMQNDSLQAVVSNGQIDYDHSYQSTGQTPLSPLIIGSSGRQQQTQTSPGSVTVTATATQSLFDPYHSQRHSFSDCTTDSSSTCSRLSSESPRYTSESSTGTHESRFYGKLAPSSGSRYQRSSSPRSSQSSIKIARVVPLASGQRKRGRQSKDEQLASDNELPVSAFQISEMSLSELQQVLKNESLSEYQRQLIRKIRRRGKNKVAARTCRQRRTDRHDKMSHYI

[7] = P. falciparum Dd2 growth inhibitors, dose response, SYBR Green, cherry-picked samples (AID 1159567); format: functional, cell-based
[8] = intracellular Trypanosoma cruzi inhibitors in host cells – cell-based, plate reader, cherry-pick samples, set 3, dose response (AID 651818); format: functional;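 also: compounds incubated with infected cells for about four days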
Paired box protein Pax-8 = Paired box protein Pax-8 (Homo sapiens, UniProt Q06710); assay: PAX8 transcriptional activity inhibition in RMG-I – RMG-I cells, luciferase, cherry-pick, dose response (AID 687027); format: functional, cell-based;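 also: luciferase reporter driven by Pax8 target thyroperoxidase promoter measured by SteadyGlo luminescence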
Paired box protein Pax-8, sequence (Q06710 whole entry): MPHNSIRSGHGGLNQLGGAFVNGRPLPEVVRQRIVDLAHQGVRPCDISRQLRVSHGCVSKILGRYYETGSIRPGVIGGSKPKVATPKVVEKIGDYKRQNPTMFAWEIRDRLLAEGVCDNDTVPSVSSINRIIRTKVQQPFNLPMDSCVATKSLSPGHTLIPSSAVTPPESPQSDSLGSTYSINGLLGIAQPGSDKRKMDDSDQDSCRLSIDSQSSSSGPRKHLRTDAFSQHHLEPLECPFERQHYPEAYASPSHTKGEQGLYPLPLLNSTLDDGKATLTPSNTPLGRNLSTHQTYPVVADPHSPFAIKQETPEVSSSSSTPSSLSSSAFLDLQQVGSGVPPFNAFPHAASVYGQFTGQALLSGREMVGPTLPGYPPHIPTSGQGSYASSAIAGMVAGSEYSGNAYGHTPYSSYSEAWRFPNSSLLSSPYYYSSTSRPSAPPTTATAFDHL

Cytochrome P450 3A4, sequence (P08684 whole entry): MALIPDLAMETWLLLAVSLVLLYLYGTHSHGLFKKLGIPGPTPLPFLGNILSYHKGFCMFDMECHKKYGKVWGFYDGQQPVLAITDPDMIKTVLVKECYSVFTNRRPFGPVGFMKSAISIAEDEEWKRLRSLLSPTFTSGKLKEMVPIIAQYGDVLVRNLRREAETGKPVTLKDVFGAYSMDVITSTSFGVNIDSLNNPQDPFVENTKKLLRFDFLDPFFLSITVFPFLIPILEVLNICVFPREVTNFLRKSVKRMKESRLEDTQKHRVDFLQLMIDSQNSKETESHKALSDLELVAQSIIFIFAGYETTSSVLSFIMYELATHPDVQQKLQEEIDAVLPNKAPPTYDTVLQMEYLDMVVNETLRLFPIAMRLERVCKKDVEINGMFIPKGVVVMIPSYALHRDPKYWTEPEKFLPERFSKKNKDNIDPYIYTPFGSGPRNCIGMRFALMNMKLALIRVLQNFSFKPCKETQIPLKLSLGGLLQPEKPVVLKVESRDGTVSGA
Cytochrome P450 2C9, sequence (P11712 whole entry): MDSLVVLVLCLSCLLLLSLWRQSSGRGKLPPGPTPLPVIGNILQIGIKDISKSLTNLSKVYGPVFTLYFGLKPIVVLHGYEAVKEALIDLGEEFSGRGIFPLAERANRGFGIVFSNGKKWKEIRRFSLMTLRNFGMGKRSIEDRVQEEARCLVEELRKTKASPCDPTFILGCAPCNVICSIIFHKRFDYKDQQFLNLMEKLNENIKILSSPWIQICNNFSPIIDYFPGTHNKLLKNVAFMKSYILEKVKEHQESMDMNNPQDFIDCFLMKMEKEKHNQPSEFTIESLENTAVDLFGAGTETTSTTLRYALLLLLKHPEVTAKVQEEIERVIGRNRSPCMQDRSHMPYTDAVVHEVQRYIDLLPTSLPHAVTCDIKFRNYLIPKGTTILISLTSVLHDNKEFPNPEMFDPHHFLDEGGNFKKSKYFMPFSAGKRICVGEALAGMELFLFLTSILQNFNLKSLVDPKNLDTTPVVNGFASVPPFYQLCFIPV
Cytochrome P450 2C19, sequence (P33261 whole entry): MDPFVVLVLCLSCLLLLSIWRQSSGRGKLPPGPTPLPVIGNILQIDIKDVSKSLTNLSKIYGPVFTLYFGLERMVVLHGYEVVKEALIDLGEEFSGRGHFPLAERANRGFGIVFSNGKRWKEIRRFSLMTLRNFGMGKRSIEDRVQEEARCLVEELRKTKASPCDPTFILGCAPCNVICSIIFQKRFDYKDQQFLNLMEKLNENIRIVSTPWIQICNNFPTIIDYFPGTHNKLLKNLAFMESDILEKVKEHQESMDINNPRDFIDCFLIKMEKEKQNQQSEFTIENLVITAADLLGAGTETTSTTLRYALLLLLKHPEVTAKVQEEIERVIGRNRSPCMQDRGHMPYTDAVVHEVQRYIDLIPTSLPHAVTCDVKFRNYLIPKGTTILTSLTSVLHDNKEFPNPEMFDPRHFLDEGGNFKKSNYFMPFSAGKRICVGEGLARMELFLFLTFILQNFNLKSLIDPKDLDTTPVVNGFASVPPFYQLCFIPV

SMILES: NC1=NC[C@H](c2ccccc2)N1CCCCC1CCCCC1
AC50 [1]: 4.23 µM (active)
AC50 [2]: 3.11 µM (active)
AC50 [3]: 43.1 µM (active)
IC50 [4]: > 20 µM (inactive)

IC50 [4]: > 20 µM (inactive)
SMILES: O=C(C1=C[C@@H](c2coc3ccccc3c2=O)C[C@@H](OCc2ccc(CO)cc2)O1)N1CCN(Cc2ccc3c(c2)OCO3)CC1

SMILES: O=C(Oc1ccccc1/C=C\C(=O)c1cc2ccccc2o1)c1cccc(F)c1
EC50 [5]: 8.35 µM (active)
EC50 [6]: 8.35 µM (active)

IC50 [4]: > 20 µM (inactive)
SMILES: COC(=O)[C@@]12CCCCN1[C@H](c1ccc(-c3cc(C(C)=O)cs3)c(OC)c1)[C@H]1C(=O)N(C)C(=O)[C@H]12

SMILES: CN(Cc1cc(Cl)cc(Cl)c1O)Cc1c(O)ccc2ccccc12
AC50 (Cytochrome P450 1A2): 0.631 µM (inconclusive)
AC50 (Cytochrome P450 2C9): 3.16 µM (inconclusive)

AC50 (Cytochrome P450 1A2): 28.2 µM (inconclusive)
AC50 (Cytochrome P450 2C9): 5.01 µM (inconclusive)
AC50 (Cytochrome P450 2C19): 28.2 µM (inconclusive)
AC50 (Cytochrome P450 3A4): 3.55 µM (inconclusive)
SMILES: O=C(NC1CCCCC1)C12CC3CC(C1)CC(n1cncn1)(C3)C2

SMILES: O=C(/C=C/c1ccc(-c2ccccc2[N+](=O)[O-])o1)c1ccc(F)cc1
EC50 [5]: 28.8 µM (active)
EC50 [6]: 35.7 µM (active)

AC50 (Cytochrome P450 1A2): 15.8 µM (inconclusive)
AC50 (Cytochrome P450 2C19): 20 µM (inconclusive)
AC50 (Cytochrome P450 3A4): 17.8 µM (inconclusive)
SMILES: CC(C)CN(Cc1c(O)ccc2c3c(c(=O)oc12)CCC3)CC(C)C

AC50 (Cytochrome P450 1A2): 12.6 µM (inconclusive)
AC50 (Cytochrome P450 2C9): 2 µM (inconclusive)
IC50 (Protein skinhead-1): > 100 µM (inactive)
AC50 (Cytochrome P450 3A4): 28.2 µM (inconclusive)
SMILES: Cn1c(-c2ccc(CN3CCCCC3)o2)nc2ccccc21

IC50 [4]: > 20 µM (inactive)
SMILES: Oc1ccc(C[C@@H]2CNCCN2CCCCC2CCCCC2)cc1

IC50 [4]: > 20 µM (inactive)
SMILES: CC(C)C[C@@H]1CN=C(N)N1C[C@@H]1CCCN1C[C@@H](C(C)C)N1C[C@@H](Cc2ccccc2)N(CCCC2CCCC2)C1=N

SMILES: C[C@@H]1CN([C@@H](C)CO)C(=O)c2c(c3ccccc3n2C)-c2ccccc2CO[C@H]1CN(C)S(=O)(=O)c1ccc(C(F)(F)F)cc1
AC50 [7]: 3.02 µM (active)

SMILES: O=C(CCCCCCC(=O)Nc1ccccc1O)N/N=C/c1ccc(OCc2ccccc2)cc1O
AC50 [8]: 1.16 µM (active)

SMILES: C[C@H](CO)N1C[C@H](C)[C@H](CN(C)Cc2ccc(C(=O)Nc3ccccc3N)cc2)Oc2ccc(NS(=O)(=O)c3cccs3)cc2CC1=O
AC50 [8]: 4.59 µM (active)

SMILES: C[C@H](CO)N1C[C@H](C)[C@@H](CN(C)Cc2ccc(C(=O)Nc3ccccc3N)cc2)Oc2c(NC(=O)Nc3ccc(F)cc3)cccc2C1=O
AC50 [8]: 4.17 µM (active)

SMILES: C[C@H](CO)N1C[C@H](C)[C@H](CN(C)Cc2ccc(C(=O)Nc3ccccc3N)cc2)Oc2ccc(NC(=O)Nc3ccc(F)cc3)cc2CC1=O
AC50 [8]: 2.26 µM (active)

SMILES: C[C@@H]1CN([C@H](C)CO)C(=O)c2cccc(NC(=O)Nc3ccc(C(F)(F)F)cc3)c2O[C@H]1CN(C)C(=O)Nc1ccc(C(F)(F)F)cc1
AC50 [8]: 6.75 µM (active)

SMILES: C[C@H](CO)N1C[C@H](C)[C@H](CN(C)Cc2ccc(-c3ccccc3)cc2)Oc2ccc(NC(=O)Nc3ccc(C(F)(F)F)cc3)cc2C1=O
AC50 [8]: 5.37 µM (active)

SMILES: C[C@@H]1CCCCO[C@@H](CN(C)Cc2ccccc2)[C@@H](C)CN([C@H](C)CO)C(=O)c2cc(NC(=O)Nc3ccc(C(F)(F)F)cc3)ccc2O1
AC50 (Paired box protein Pax-8): 10.1 µM (active)
AC50 [8]: 1.64 µM (active)

SMILES: C[C@@H]1CN([C@H](C)CO)C(=O)Cc2cc(NS(=O)(=O)c3ccc(Cl)cc3)ccc2O[C@H]1CN(C)Cc1ccc(C(=O)Nc2ccccc2N)cc1
AC50 [8]: 4.53 µM (active)

SMILES: C[C@H](CO)N1C[C@H](C)[C@@H](CN(C)Cc2ccc(-c3ccccc3)cc2)Oc2c(NC(=O)NC3CCCCC3)cccc2C1=O
AC50 [8]: 4.23 µM (active)

SMILES: C[C@@H]1CCCCO[C@H](CN(C)Cc2ccc(Cl)c(Cl)c2)[C@@H](C)CN([C@H](C)CO)C(=O)c2cc(NS(=O)(=O)c3ccc(Cl)cc3)ccc2O1
AC50 [8]: 4.22 µM (active)

SMILES: COc1ccc(CN(C)C[C@@H]2Oc3ccc(NS(=O)(=O)c4ccc(Cl)cc4)cc3CC(=O)N([C@H](C)CO)C[C@H]2C)cc1
AC50 [8]: 2.61 µM (active)

SMILES: Cc1ccccc1S(=O)(=O)N1[C@H](CO)[C@@H](c2ccc(C#CC3CCCCC3)cc2)[C@@H]1C#N
AC50 [7]: 4.12 µM (active)

SMILES: OC[C@@H]1Nc2ccc(C#Cc3cccc(F)c3)cc2[C@@H]2NCC[C@H]12
AC50 [7]: 2.83 µM (active)

SMILES: N#C[C@H]1[C@@H](c2ccc(C#CC3CC3)cc2)[C@H](CO)N1S(=O)(=O)c1ccccc1
AC50 [7]: 4.18 µM (active)

SMILES: CCCNC(=O)N1CC2(CCN(C(=O)CN(C)C)CC2)c2c(n(C)c3cc(OC)ccc23)[C@H]1CO
AC50 [7]: 4.6 µM (active)

SMILES: COc1ccc(CN2C[C@@H](C)[C@H](OC)CN(C)C(=O)c3cc(NC(=O)c4nc5ccccc5s4)ccc3OC[C@H]2C)cc1
AC50 [7]: 4.08 µM (active)

SMILES: Cc1ccc(/C=C/C(=O)c2ccccc2)cc1
EC50 [5]: 22.6 µM (active)
EC50 [6]: 20.1 µM (active)
